Experiments:
[1] = molecular target: TTBK1 (Homo sapiens, UniProt Q5TCY1); settings: 1 μM; Run 1, Run 2
[2] = molecular target: TESK2 (Homo sapiens, UniProt Q96S53); settings: 1 μM; Run 1, Run 2
[3] = molecular target: RSK1 (Homo sapiens, UniProt Q15418); experiment: biochemical; settings: read-out: % enzyme activity, 1 μM; Run 1, Run 2
[4] = molecular target: CDK9/cyclin T1 (Homo sapiens, UniProt P50750); experiment: biochemical; settings: read-out: % enzyme activity, 1 μM; Run 1, Run 2
[5] = molecular target: T1, PKCepsilon (Homo sapiens, UniProt Q02156); settings: 1 μM; Run 1, Run 2
T1 sequence (Q02156 1-737): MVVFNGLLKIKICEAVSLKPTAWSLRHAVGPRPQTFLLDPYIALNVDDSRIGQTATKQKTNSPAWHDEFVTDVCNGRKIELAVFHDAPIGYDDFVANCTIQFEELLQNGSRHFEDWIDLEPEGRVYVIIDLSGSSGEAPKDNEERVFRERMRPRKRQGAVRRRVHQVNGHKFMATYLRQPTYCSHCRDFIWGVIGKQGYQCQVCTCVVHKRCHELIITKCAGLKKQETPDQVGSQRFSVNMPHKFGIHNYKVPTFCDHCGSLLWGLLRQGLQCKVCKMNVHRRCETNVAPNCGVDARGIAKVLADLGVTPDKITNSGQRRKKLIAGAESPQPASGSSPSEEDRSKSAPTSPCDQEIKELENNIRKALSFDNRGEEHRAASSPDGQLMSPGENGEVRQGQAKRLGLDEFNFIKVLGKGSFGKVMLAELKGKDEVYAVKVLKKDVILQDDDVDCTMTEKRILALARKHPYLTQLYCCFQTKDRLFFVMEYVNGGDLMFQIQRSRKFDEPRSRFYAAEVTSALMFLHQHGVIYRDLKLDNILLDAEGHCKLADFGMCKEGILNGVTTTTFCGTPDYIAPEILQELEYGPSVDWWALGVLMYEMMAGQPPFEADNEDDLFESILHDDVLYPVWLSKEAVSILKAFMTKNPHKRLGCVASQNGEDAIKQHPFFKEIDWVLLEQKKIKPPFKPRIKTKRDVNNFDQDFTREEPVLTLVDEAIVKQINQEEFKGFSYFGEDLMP

[6] = molecular target: T2, RIPK5 (Homo sapiens, UniProt Q6XUX3); settings: 1 μM; Run 1, Run 2
T2 sequence (Q6XUX3 1-929): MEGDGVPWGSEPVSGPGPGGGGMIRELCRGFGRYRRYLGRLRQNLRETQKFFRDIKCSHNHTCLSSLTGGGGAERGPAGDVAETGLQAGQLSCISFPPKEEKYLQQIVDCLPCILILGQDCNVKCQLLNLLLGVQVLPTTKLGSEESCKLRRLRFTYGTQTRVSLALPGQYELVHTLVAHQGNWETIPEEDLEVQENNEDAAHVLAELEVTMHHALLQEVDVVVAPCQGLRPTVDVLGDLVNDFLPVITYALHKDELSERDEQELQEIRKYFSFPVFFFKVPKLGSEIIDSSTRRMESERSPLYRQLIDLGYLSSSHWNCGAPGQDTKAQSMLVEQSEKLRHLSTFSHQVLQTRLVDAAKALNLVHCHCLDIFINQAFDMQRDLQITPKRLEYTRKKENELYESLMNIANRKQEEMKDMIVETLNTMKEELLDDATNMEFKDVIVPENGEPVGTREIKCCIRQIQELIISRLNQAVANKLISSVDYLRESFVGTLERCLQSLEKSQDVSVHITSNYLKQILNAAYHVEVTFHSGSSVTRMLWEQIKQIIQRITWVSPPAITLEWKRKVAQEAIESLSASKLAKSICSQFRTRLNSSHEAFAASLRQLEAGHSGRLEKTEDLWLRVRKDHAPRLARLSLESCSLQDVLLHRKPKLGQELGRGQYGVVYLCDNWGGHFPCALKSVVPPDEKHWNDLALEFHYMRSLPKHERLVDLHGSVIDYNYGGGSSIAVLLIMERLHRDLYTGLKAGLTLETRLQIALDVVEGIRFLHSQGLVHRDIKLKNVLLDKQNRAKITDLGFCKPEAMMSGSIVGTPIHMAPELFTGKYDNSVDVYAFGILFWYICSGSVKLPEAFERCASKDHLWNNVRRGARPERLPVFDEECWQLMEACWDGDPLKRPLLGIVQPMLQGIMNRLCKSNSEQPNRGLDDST

[7] = molecular target: T3, SGK3/SGKL (Homo sapiens, UniProt Q96BR1); experiment: biochemical; settings: read-out: % enzyme activity, 1 μM; Run 1, Run 2
T3 sequence (Q96BR1 1-496): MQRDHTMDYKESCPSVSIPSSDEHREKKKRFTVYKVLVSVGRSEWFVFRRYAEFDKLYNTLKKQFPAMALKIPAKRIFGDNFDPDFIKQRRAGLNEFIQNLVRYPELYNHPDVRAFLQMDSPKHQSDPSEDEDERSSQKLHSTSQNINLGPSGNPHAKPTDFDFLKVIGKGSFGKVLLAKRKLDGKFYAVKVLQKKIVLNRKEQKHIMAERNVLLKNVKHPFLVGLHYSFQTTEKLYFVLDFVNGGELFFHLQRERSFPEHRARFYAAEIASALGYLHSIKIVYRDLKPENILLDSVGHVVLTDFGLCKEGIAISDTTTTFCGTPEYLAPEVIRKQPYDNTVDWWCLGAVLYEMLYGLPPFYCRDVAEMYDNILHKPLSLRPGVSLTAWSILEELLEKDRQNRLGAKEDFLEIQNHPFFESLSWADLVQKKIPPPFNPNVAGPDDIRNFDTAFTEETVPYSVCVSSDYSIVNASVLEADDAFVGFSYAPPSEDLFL

[8] = molecular target: SRPK1 (Homo sapiens, UniProt Q96SB4); experiment: biochemical; settings: read-out: % enzyme activity, 1 μM; Run 1, Run 2
[9] = molecular target: PKCtheta (Homo sapiens, UniProt Q04759); settings: 1 μM; Run 1, Run 2
[10] = molecular target: STK39/STLK3 (Homo sapiens, UniProt Q9UEW8); settings: 1 μM; Run 1, Run 2
[11] = molecular target: LIMK1 (Homo sapiens, UniProt P53667); experiment: biochemical; settings: read-out: % enzyme activity, 1 μM; Run 1, Run 2
[12] = molecular target: CDK1/cyclin A (Homo sapiens, UniProt P06493); settings: 1 μM; Run 1, Run 2
[13] = molecular target: ERK2/MAPK1 (Homo sapiens, UniProt P28482); settings: 1 μM; Run 1, Run 2
[14] = molecular target: STK38/NDR1 (Homo sapiens, UniProt Q15208); experiment: biochemical; settings: read-out: % enzyme activity, 1 μM; Run 1, Run 2
[15] = molecular target: CDK2/cyclin E (Homo sapiens, UniProt P24941); experiment: biochemical; settings: read-out: % enzyme activity, 1 μM; Run 1, Run 2

Chain of ERK2/MAPK1 (P28482 whole entry): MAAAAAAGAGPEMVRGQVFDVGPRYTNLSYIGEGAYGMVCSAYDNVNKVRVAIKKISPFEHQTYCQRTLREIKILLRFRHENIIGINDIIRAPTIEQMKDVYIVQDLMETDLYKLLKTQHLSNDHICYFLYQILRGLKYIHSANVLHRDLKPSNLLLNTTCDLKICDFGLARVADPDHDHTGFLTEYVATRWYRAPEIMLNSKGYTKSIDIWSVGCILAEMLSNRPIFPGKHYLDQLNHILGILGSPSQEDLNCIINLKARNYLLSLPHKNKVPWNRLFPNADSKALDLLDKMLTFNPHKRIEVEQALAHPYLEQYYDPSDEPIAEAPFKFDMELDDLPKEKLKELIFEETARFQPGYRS
Chain of SRPK1 (Q96SB4 whole entry): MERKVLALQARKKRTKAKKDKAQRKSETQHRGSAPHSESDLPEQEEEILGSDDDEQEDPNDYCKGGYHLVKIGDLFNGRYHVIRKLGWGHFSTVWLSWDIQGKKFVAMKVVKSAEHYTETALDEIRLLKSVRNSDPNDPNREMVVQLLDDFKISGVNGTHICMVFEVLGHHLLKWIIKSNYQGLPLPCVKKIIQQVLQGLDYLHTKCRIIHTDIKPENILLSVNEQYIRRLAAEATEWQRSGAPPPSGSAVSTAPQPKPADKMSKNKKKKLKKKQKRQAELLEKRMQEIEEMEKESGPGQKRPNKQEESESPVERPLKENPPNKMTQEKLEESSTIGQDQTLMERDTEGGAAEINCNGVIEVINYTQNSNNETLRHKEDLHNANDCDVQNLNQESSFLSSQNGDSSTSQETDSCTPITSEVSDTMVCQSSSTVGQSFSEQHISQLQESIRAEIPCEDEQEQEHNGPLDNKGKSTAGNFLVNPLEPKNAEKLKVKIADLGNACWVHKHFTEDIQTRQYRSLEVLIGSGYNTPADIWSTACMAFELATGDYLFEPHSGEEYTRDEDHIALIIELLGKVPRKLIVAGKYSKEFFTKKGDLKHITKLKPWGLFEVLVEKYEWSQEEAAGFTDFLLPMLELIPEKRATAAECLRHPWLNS
Chain of CDK9/cyclin T1 (P50750 whole entry): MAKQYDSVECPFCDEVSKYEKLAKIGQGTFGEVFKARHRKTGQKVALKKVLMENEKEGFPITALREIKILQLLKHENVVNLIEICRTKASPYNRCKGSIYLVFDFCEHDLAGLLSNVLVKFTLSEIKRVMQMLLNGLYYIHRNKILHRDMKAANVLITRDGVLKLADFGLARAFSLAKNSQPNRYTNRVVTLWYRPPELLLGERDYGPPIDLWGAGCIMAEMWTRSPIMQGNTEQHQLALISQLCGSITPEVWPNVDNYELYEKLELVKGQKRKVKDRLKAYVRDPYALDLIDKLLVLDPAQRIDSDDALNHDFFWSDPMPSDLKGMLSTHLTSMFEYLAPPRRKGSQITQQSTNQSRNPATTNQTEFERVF
Chain of CDK9/cyclin T1 (O60563 whole entry partner): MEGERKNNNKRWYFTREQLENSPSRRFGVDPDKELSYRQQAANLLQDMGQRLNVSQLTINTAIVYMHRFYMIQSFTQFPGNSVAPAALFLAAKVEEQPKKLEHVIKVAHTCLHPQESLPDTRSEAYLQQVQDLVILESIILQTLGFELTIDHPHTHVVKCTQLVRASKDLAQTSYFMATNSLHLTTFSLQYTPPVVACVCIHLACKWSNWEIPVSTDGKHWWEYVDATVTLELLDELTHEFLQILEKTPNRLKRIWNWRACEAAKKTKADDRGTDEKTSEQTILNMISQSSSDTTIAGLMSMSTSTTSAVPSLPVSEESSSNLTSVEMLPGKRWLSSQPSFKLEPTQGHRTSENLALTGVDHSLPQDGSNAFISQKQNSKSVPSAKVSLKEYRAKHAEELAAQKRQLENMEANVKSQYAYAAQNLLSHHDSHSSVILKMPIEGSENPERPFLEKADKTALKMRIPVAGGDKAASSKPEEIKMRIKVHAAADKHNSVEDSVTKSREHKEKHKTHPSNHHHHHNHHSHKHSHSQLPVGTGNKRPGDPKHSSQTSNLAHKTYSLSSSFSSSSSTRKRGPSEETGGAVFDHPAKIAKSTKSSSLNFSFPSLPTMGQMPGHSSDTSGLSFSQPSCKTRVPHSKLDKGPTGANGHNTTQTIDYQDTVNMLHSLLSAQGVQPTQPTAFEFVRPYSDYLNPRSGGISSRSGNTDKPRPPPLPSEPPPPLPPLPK
Chain of STK38/NDR1 (Q15208 whole entry): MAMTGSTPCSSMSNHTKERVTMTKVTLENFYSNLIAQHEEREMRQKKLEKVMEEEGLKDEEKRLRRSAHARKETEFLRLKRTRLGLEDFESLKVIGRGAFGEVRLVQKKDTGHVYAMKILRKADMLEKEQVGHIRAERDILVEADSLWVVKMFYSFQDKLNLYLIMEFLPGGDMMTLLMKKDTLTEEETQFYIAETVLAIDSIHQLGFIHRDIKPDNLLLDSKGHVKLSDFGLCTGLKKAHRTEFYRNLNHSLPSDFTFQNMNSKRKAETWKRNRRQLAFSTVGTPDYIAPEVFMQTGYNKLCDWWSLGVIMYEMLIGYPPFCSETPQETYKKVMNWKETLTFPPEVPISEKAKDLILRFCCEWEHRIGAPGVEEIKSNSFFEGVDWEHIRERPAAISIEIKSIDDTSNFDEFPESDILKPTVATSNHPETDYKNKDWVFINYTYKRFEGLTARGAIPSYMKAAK
Chain of TTBK1 (Q5TCY1 whole entry): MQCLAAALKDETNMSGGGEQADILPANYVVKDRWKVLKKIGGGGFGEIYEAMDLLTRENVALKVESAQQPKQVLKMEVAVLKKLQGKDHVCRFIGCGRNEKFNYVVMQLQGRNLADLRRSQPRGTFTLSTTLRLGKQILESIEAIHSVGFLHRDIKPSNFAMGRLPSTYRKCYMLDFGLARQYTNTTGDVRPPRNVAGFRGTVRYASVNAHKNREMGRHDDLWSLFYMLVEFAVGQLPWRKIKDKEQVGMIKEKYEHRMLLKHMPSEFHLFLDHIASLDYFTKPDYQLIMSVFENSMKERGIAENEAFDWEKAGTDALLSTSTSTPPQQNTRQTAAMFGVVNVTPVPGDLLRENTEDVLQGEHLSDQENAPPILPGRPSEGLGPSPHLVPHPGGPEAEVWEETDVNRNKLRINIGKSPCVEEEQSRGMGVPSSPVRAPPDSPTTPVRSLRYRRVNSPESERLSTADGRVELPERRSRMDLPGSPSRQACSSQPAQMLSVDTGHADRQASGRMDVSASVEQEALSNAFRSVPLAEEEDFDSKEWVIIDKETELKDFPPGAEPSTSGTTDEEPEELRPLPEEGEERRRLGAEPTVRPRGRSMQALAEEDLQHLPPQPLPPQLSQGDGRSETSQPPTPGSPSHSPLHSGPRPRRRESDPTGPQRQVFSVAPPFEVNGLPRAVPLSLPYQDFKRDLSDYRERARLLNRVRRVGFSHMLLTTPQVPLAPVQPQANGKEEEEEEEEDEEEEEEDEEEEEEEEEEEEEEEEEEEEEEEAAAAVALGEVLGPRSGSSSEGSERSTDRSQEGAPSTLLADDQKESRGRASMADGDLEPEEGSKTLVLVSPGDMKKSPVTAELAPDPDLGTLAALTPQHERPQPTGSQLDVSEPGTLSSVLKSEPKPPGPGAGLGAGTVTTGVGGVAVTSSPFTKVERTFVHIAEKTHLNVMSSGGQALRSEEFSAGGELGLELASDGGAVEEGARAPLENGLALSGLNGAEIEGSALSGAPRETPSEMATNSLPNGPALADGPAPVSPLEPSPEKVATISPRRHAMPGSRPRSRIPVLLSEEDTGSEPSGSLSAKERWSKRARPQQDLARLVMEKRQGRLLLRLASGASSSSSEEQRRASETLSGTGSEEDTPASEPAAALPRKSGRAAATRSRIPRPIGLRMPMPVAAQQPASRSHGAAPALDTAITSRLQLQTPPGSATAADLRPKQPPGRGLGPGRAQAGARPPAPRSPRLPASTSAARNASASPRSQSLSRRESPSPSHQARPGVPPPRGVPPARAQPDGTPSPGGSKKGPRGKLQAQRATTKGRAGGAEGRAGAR
Chain of RSK1 (Q15418 whole entry): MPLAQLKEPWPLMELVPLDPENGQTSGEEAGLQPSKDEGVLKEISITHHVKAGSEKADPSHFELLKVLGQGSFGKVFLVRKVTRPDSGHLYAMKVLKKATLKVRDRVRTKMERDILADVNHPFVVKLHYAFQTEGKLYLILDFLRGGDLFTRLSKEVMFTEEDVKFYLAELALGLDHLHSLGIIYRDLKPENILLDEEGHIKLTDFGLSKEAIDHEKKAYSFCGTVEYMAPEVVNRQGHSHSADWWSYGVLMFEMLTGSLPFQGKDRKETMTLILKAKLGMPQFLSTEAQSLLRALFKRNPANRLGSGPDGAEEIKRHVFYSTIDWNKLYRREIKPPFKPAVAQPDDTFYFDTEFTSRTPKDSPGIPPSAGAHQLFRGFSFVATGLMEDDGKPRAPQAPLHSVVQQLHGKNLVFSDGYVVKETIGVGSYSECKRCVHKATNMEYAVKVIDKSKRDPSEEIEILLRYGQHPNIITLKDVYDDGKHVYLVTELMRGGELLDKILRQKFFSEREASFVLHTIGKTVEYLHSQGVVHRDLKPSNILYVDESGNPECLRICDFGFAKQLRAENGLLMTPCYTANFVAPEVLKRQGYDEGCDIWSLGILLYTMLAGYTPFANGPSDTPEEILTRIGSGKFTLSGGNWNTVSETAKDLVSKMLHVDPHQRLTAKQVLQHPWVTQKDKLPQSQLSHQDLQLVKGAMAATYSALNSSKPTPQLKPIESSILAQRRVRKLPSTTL

Compound	% enzyme activity [1]	% enzyme activity [2]	remaining activity at 1 µM [3]	remaining activity at 1 µM [4]	% enzyme activity [5]	% enzyme activity [6]	remaining activity at 1 µM [7]	remaining activity at 1 µM [8]	% enzyme activity [9]	% enzyme activity [10]	remaining activity at 1 µM [11]	% enzyme activity [12]	% enzyme activity [13]	remaining activity at 1 µM [14]	remaining activity at 1 µM [15]
COc1cc(-c2cncc(-c3ccc(N4CCN(C)CC4)cc3)c2C)cc(F)c1C(N)=O [Compound 26a, 2-Fluoro-6-methoxy-4-(4-methyl-5-(4-(4-methylpiperazin-1-yl)phenyl)pyridin-3-yl)benzamide]	96.78%	93.89%	98.9%	90.8%	96.64%	82.21%	103%	112%	81.31%	88.76%	65.1%	92.50%	91.58%	91.9%	105%
COc1cc(-c2cncc(-c3ccc(N4C[C@@H](C)N(C)[C@@H](C)C4)cc3)c2C)cc(F)c1C(N)=O [Compound 26c, 2-Fluoro-6-methoxy-4-(4-methyl-5-(4-((3R,5S)-3,4,5-trimethylpiperazin-1-yl)phenyl)pyridin-3-yl)benzamide]	98.52%	92.03%	102%	97.1%	105.76%	86.47%	94.8%	89.3%	84.96%	93.62%	74.2%	89.52%	87.49%	96.7%	102%

Reference: paper PMC8213057, “Targeting ALK2: An Open Science Approach to Developing Therapeutics for the Treatment of Diffuse Intrinsic Pontine Glioma” (Journal of Medicinal Chemistry, 2020)
